Experimental data as given in patent publication US9994673B2, “Bisphenol polyether oligomers, methods of manufacture, and polycarbonates made therefrom” (SABIC GLOBAL TECHNOLOGIES B.V, priority 2013, dated 2018).
“Also recorded” adds a separate entry of the source.

Legend:
[1] = molecular target: recombinant human estradiol receptor (rhER) beta 1 (Homo sapiens, UniProt Q92731); test: Competitive estradiol binding assay, displacement of [3H]estradiol, rhER beta 1; settings: up to highest concentration 2.5×E-4 M
[2] = molecular target: T1, recombinant human estradiol receptor (rhER) alpha (Homo sapiens, UniProt P03372); test: Competitive estradiol binding assay, displacement of [3H]estradiol, rhER alpha; settings: up to highest concentration 2.5×E-4 M
T1 sequence (P03372 1-595): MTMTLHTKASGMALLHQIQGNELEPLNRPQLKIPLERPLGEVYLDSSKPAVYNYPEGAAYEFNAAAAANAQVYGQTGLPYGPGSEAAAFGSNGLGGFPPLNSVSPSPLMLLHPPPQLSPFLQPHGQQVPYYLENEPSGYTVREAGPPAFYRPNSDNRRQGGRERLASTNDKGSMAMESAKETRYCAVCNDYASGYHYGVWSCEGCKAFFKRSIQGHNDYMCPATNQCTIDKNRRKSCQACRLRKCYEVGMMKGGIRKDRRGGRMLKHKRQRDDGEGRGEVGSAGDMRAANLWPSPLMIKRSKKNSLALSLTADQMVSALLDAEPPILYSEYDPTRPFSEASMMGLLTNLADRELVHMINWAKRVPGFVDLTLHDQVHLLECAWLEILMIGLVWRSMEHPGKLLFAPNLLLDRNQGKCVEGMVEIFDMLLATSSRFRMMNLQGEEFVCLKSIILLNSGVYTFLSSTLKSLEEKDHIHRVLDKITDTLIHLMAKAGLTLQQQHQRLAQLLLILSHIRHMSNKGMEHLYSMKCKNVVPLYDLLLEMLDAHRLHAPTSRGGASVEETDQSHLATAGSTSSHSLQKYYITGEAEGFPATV

SMILES	Binding to rhER beta (in words) [1]	Binding to rhER alpha (in words) [2]	Binding to rhER beta (in words) ([1]; listed as BPA)	Binding to rhER alpha (in words) ([2]; listed as BPA)
CC(C)(c1ccccc1)c1ccc(O)cc1 [Control C, p-Cumyl Phenol]	very low level of binding	very low level of binding	–	–
CC(C)(c1ccc(O)cc1)c1ccc(O)cc1 [Control B, Bisphenol A]	–	–	bind to both receptors; also recorded: very low level of binding	bind to both receptors; also recorded: very low level of binding
CC(C)(c1ccc(O)cc1)c1ccc(OCc2ccc(COc3ccc(C(C)(C)c4ccc(O)cc4)cc3)cc2)cc1 [BPA-X-1, 4,4′-[1,4-Phenylenebis(methyleneoxy-4,1-phenylene(1-methylethylidene))]bisphenol]	no detectable binding	no detectable binding	–	–
